According to US4810818A, “Process for producing alpha-aspartyl-l-phenylalanine methyl ester having an improved solubility” (Toyo Soda Manufacturing Co., Ltd, priority 1986, dated 1989):
Peptide text beside a SMILES is read from it.

What was measured:
[1] = Ratio of I type crystals by X-ray diffraction specific peaks with calibration curve; assay type: physicochemical; settings: peaks at 2θ 4.4° (I) and 5.0° (II)
Procedure: Then, the ratio of the I type crystals was determined by comparing the strength ratio of each sample with the calibration curve.

[2] = Solubility: duration till 1 g of Aspartame crystals in 500 ml distilled water was completely dissolved as visually observed; assay type: physicochemical; settings: 1 g in 500 ml distilled water, 20° C., magnetic stirrer 200 r.p.m.; for Solubility (min) (duration till completely dissolved): Table 1; for Solubility (min.) (duration till completely dissolved): Table 2, dried at 50° C. then 70° C.
Procedure: In the Examples, the solubility of Aspartame crystals was determined by measuring the duration till 1 g of Aspartame crystals which was added to 500 ml of distilled water at 20° C., followed by stirring (by a magnetic stirrer at 200 r.p.m.), was completely dissolved as visually observed.

[3] = Crystal form conversion (I type to II type) on drying; assay type: physicochemical; settings: irrespective of the drying method
[4] = drying at a high temperature; part readily converted to a diketopiperadine derivative; cited from earlier work
[5] = cited from earlier work
[6] = as compared with the I type crystals; cited from earlier work
[7] = Dispersibility and solubility in water (general statements); assay type: physicochemical; settings: as compared with the II type crystals
[8] = Table 2, dried at 50° C. then 70° C.

Structure (SMILES)	Ratio of I type crystals (%) [1, 8] [%]	Solubility (min.) (duration till completely dissolved) [2] [min]	other results
COC(=O)[C@H](Cc1ccccc1)NC(=O)[C@@H](N)CC(=O)O [Example 1, α-L-aspartyl-L-phenylalanine methyl ester] (H-Asp-Phe-OMe)	–	–	Ratio of I type crystals (%) ([1]; Table 1): 98%; Solubility (min) (duration till completely dissolved) [2]: 5 to 6 min
COC(=O)[C@H](Cc1ccccc1)NC(=O)[C@@H](N)CC(=O)O [Aspartame, α-L-aspartyl-L-phenylalanine methyl ester] (H-Asp-Phe-OMe)	–	–	water content till which the I type crystal form is maintained [3]: about 15 % by weight; stability at a high temperature [4]: not stable at a high temperature; dispersibility and solubility in water [5]: poor dispersibility and solubility in water
COC(=O)[C@H](Cc1ccccc1)NC(=O)[C@@H](N)CC(=O)O [Aspartame II type crystals, α-L-aspartyl-L-phenylalanine methyl ester] (H-Asp-Phe-OMe)	–	–	hygroscopicity [6]: low hygroscopicity; storage stability [6]: excellent storage stability
COC(=O)[C@H](Cc1ccccc1)NC(=O)[C@@H](N)CC(=O)O [Example 2, α-L-aspartyl-L-phenylalanine methyl ester] (H-Asp-Phe-OMe)	90	5 to 6	–
COC(=O)[C@H](Cc1ccccc1)NC(=O)[C@@H](N)CC(=O)O [I type crystals, α-L-aspartyl-L-phenylalanine methyl ester] (H-Asp-Phe-OMe)	–	–	solubility, I type versus II type crystals [7]: far superior in the solubility to the II type crystals
COC(=O)[C@H](Cc1ccccc1)NC(=O)[C@@H](N)CC(=O)O [Comparative Example 1, α-L-aspartyl-L-phenylalanine methyl ester] (H-Asp-Phe-OMe)	–	–	Ratio of I type crystals (%) ([1]; Table 1): 25%; Solubility (min) (duration till completely dissolved) [2]: 13 to 14 min

Second part, led by results:

Ratio of I type crystals (%) [1, 8] [%]	Solubility (min.) (duration till completely dissolved) [2] [min]	Structure (SMILES)	other results
100	4 to 5	COC(=O)[C@H](Cc1ccccc1)NC(=O)[C@@H](N)CC(=O)O [Example 5, α-L-aspartyl-L-phenylalanine methyl ester] (H-Asp-Phe-OMe)	–
78	7 to 8	COC(=O)[C@H](Cc1ccccc1)NC(=O)[C@@H](N)CC(=O)O [compound 5, α-L-aspartyl-L-phenylalanine methyl ester] (H-Asp-Phe-OMe)	–
64	14 to 15	COC(=O)[C@H](Cc1ccccc1)NC(=O)[C@@H](N)CC(=O)O [compound 4, α-L-aspartyl-L-phenylalanine methyl ester] (H-Asp-Phe-OMe)	–
60	13 to 14	COC(=O)[C@H](Cc1ccccc1)NC(=O)[C@@H](N)CC(=O)O [compound 2, α-L-aspartyl-L-phenylalanine methyl ester] (H-Asp-Phe-OMe)	–
98	4 to 5	COC(=O)[C@H](Cc1ccccc1)NC(=O)[C@@H](N)CC(=O)O [Example 4, α-L-aspartyl-L-phenylalanine methyl ester] (H-Asp-Phe-OMe)	–
100	5 to 6	COC(=O)[C@H](Cc1ccccc1)NC(=O)[C@@H](N)CC(=O)O [Example 3, α-L-aspartyl-L-phenylalanine methyl ester] (H-Asp-Phe-OMe)	–
51	15 to 16	COC(=O)[C@H](Cc1ccccc1)NC(=O)[C@@H](N)CC(=O)O [compound 3, α-L-aspartyl-L-phenylalanine methyl ester] (H-Asp-Phe-OMe)	–
